Results: ChEMBL document CHEMBL3351479, “Novel acylureidoindolin-2-one derivatives as dual Aurora B/FLT3 inhibitors for the treatment of acute myeloid leukemia” (Eur J Med Chem, 2014)

Experiments:
[1] = target: T1, Receptor-type tyrosine-protein kinase FLT3 (Homo sapiens, UniProt P36888); assay: Inhibition of FLT3 (unknown origin) using EAIYAAPFAKKK substrate
T1 sequence (P36888 whole entry): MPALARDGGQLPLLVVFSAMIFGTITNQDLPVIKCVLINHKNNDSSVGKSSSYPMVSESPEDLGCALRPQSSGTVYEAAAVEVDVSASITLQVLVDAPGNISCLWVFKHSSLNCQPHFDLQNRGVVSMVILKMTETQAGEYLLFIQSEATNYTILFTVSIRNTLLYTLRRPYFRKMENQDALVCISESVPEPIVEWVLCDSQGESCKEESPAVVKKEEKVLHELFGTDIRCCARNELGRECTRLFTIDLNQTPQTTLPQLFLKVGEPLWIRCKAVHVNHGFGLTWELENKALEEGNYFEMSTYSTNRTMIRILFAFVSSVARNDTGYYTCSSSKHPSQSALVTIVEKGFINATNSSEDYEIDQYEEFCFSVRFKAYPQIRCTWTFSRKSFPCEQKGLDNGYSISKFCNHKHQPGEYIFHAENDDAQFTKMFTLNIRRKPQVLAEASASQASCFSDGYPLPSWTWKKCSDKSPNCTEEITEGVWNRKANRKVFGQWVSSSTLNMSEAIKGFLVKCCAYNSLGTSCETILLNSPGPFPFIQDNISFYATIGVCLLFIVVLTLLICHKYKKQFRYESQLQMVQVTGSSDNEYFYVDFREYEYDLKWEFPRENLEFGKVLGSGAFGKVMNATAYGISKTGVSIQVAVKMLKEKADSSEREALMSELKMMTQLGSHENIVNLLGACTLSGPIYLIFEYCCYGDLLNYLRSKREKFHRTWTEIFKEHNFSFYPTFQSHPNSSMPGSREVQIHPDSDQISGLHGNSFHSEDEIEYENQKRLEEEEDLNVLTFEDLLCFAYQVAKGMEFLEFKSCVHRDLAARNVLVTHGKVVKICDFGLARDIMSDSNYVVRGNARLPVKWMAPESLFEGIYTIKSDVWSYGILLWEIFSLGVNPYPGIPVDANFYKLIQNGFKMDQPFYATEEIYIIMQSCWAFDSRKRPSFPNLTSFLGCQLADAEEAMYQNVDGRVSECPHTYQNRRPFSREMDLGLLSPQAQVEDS

MV4-11 [2] = assay: Cytotoxicity against human MV4-11 cells assessed as cell viability after 48 hrs by MTT assay; type: functional, cell-based; details: Homo sapiens, MV4-11, 48 h
MOLM-13 [3] = assay: Cytotoxicity against human MOLM13 cells assessed as cell viability after 48 hrs by MTT assay; type: functional, cell-based; details: MOLM-13, 48 h
THP-1 [4] = assay: Cytotoxicity against human THP1 cells assessed as cell viability after 48 hrs by MTT assay; type: functional, cell-based; details: Homo sapiens, THP-1, 48 h
[5] = Cytotoxicity against human HL60 cells assessed as cell viability after 48 hrs by MTT assay; type: functional, cell-based; details: HL-60, 48 h
Aurora kinase B = Aurora kinase B (Homo sapiens, UniProt Q96GD4); assay: Inhibition of Aurora B (unknown origin) using HLRRASLG substrate at 1 uM
Aurora kinase B, sequence (Q96GD4 whole entry): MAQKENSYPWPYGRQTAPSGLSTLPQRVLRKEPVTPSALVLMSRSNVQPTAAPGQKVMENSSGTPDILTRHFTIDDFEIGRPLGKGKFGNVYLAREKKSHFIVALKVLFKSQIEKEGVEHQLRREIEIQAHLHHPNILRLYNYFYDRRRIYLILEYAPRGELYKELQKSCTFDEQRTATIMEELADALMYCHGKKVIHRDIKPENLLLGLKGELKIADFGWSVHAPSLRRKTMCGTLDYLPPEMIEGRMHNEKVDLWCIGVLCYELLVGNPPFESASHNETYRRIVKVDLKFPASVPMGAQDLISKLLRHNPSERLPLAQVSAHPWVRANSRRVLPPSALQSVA

[6] = target: Receptor-type tyrosine-protein kinase FLT3 (Homo sapiens) (UniProt P36888); assay: Inhibition of FLT3 (unknown origin) using EAIYAAPFAKKK substrate at 1 uM
MV4-11 [7] = assay: Cytotoxicity against human MV4-11 cells assessed as cell viability at 1 uM after 48 hrs by MTT assay; type: functional; details: MV4-11, 48 h, read-out: Activity
MOLM-13 [8] = assay: Cytotoxicity against human MOLM13 cells assessed as cell viability at 1 uM after 48 hrs by MTT assay; type: functional; details: MOLM-13, 48 h, read-out: Activity
THP-1 [9] = assay: Cytotoxicity against human THP1 cells assessed as cell viability at 1 uM after 48 hrs by MTT assay; type: functional; details: THP-1, 48 h, read-out: Activity
[10] = Cytotoxicity against human HL60 cells assessed as cell viability at 1 uM after 48 hrs by MTT assay; type: functional; details: HL-60, 48 h, read-out: Activity

IC50 [1] [nM]	inhibition (Aurora kinase B) [%]	inhibition [6] [%]	Compound	IC50 (MV4-11 [2]) [nM]	IC50 (MOLM-13 [3]) [nM]	IC50 (THP-1 [4]) [nM]	IC50 [5] [nM]	viability at 1 µM (MV4-11 [7]) [%]	viability at 1 µM (MOLM-13 [8]) [%]	viability at 1 µM (THP-1 [9]) [%]	viability at 1 µM [10] [%]
> 1000			CCOC(=O)CCc1c(C)[nH]c(/C=C2\C(=O)Nc3cc(NC(=O)NC(=O)c4ccc(OC)cc4F)ccc32)c1C	15.1	10.9	53.9	29.9				
			COc1ccc(C(=O)NC(=O)Nc2ccc3c(c2)NC(=O)/C3=C\c2[nH]c(C)c(CC(=O)O)c2C)cc1	4.2	3.1	69	8.1				
	56	43	COc1ccc(/C=C2/C(=O)Nc3cc(NC(=O)NC(=O)c4ccc(OC)cc4)ccc32)cc1	228	238	382	336				
	44	15	COc1ccc(C(=O)NC(=O)Nc2ccc3c(c2)NC(=O)/C3=C/c2ccco2)cc1	> 500	> 500	> 500	> 500	70	62	74	64
			COc1ccc(C(=O)NC(=O)Nc2cc3c(cc2F)/C(=C/c2[nH]c(C)c(C(=O)O)c2C)C(=O)N3)c(F)c1	35.9	17.8	76.3	28.6				
			COc1ccc(C(=O)NC(=O)Nc2ccc3c(c2)NC(=O)/C3=C\c2[nH]c(C)cc2C)cc1	62.8	42.8	116	45.8				
> 1000			O=C(NC(=O)c1ccccc1)Nc1ccc2c(c1)NC(=O)/C2=C\c1ccc[nH]1	240	238	293	250				
			COc1ccc(C(=O)NC(=O)Nc2cc3c(cc2F)/C(=C/c2[nH]c(C)c(CCC(=O)O)c2C)C(=O)N3)c(F)c1	6.5	2.3	55.9	8.9				
	7	7	COc1ccc(C(=O)NC(=O)Nc2cccc3c2NC(=O)/C3=C\c2ccc[nH]2)cc1	> 500	> 500	> 500	488	78	72	53	
> 1000			COc1ccc(C(=O)NC(=O)Nc2cc3c(cc2F)/C(=C/c2[nH]c(C)c(CCC(=O)O)c2C)C(=O)N3)cc1	26.1	30.1	64.7	28.8				
			CN(C)c1ccc(C(=O)NC(=O)Nc2ccc3c(c2)NC(=O)/C3=C\c2ccc[nH]2)cc1	261	260	262	269				
> 1000	63		COc1ccc(C(=O)NC(=O)Nc2ccc3c(c2)NC(=O)/C3=C/c2ccc(O)cc2)cc1	377	351	> 500	485			54	
	7	4	COc1ccc(C(=O)NC(=O)Nc2ccc3c(c2)NC(=O)/C3=C/c2ccncc2)cc1	> 500	> 500	> 500	> 500	72	65	96	95
			Cc1ccc(C(=O)NC(=O)Nc2ccc3c(c2)NC(=O)/C3=C\c2ccc[nH]2)cc1	285	212	356	301				
	59	40	COc1ccc(C(=O)NC(=O)Nc2ccc3c(c2)NC(=O)/C3=C/c2ccc(N(C)C)cc2)cc1	45.5	42.5	88.9	50.4				
			O=C(NC(=O)c1ccc(Cl)c(C(F)(F)F)c1)Nc1ccc2c(c1)NC(=O)/C2=C\c1ccc[nH]1	14.1	11.1	68.8	23.2				

IC50 [1] [nM]	inhibition (Aurora kinase B) [%]	inhibition [6] [%]	Compound	IC50 (MV4-11 [2]) [nM]	IC50 (MOLM-13 [3]) [nM]	IC50 (THP-1 [4]) [nM]	IC50 [5] [nM]	viability at 1 µM (MV4-11 [7]) [%]	viability at 1 µM (MOLM-13 [8]) [%]	viability at 1 µM (THP-1 [9]) [%]	viability at 1 µM [10] [%]
			O=C(NC(=O)c1ccccc1F)Nc1ccc2c(c1)NC(=O)/C2=C\c1ccc[nH]1	234	232	331	268				
			COc1ccc(C(=O)NC(=O)Nc2ccc3c(c2)NC(=O)/C3=C\c2[nH]c(C)c(CCC(=O)N3CCOCC3)c2C)c(F)c1	17.9	16.1	70.3	31.2				
			O=C(NC(=O)c1ccc(Cl)cc1)Nc1ccc2c(c1)NC(=O)/C2=C\c1ccc[nH]1	19.3	19.1	81.2	21.6				
			CCN(CC)CCNC(=O)c1c(C)[nH]c(/C=C2\C(=O)Nc3cc(NC(=O)NC(=O)c4ccc(OC)cc4F)ccc32)c1C	17.7	12.9	41.2	20.3				
	39		COc1ccc(C(=O)NC(=O)Nc2ccc3c(c2)/C(=C/c2ccc[nH]2)C(=O)N3)cc1	256	222	373	301				
			CCN(CC)CCNC(=O)c1c(C)[nH]c(/C=C2\C(=O)Nc3ccc(F)cc32)c1C [SUNITINIB]	24.3	17.7	45.7	36.8				
			O=C(NC(=O)c1ccc(Cl)c(Cl)c1)Nc1ccc2c(c1)NC(=O)/C2=C\c1ccc[nH]1	31.6	29	90.9	35				
			O=C(NC(=O)c1ccc(C(F)(F)F)cc1)Nc1ccc2c(c1)NC(=O)/C2=C\c1ccc[nH]1	191	196	326	293				
			COc1ccc(C(=O)NC(=O)Nc2ccc3c(c2)NC(=O)/C3=C\c2[nH]c(C)c(CCC(=O)N3CCN(C)CC3)c2C)c(F)c1	11	9.2	65	15.7				
			COc1ccc(C(=O)NC(=O)Nc2ccc3c(c2)NC(=O)/C3=C\c2[nH]c(C)c(C(=O)NCCN(C)C)c2C)c(F)c1	8.1	5.3	63.7	14.1				
> 1000			COc1cc(OC)cc(C(=O)NC(=O)Nc2ccc3c(c2)NC(=O)/C3=C\c2ccc[nH]2)c1	150	114	300	251				
			CCN(CCO)CCCOc1ccc2c(Nc3cc(CC(=O)Nc4cccc(F)c4)[nH]n3)ncnc2c1 [DEFOSBARASERTIB]	8.6	9.7	25.1	12.7				
	11		COc1ccc(C(=O)NC(=O)Nc2cccc3c2/C(=C/c2ccc[nH]2)C(=O)N3)cc1	357	303	356	334				
			COc1ccc(C(=O)NC(=O)Nc2ccc3c(c2)NC(=O)/C3=C\c2[nH]c(C)c(CCC(=O)O)c2C)c(F)c1	6.1	4	61.3	16.7				
			COc1ccc(C(=O)NC(=O)Nc2ccc3c(c2)NC(=O)/C3=C\c2[nH]c(C)c(C(=O)N3CCN(C)CC3)c2C)c(F)c1	10.6	6.9	95.1	15.7				
			COc1ccc(C(=O)NC(=O)Nc2ccc3c(c2)NC(=O)/C3=C\c2[nH]c(C)c(C(=O)N3CCOCC3)c2C)c(F)c1	16.8	10.8	102	24				
